Laboratory results taken from patent US5723319A, “Cultured cell line that inducibly expresses the hepatitis B virus genome, and uses thereof for screening antiviral substances” (Avid Therapeutics, Inc., priority 1995, dated 1998).
Like-named read-outs stand apart in the source and are kept apart here.

Assays:
[1] = tested on: HBV (Hep AD38 cells); assay: Inhibition of release of HBV DNA into the extracellular environment, Hep AD38 cells (dot blot); assay type: cell-based, human hepatitis B virus
Method: Samples were analyzed by dot blot hybridization to detect the presence HBV DNA in the cell culture supernatants (Korba and Milman, 1991, supra). Supernatants were mixed with an equal volume of denaturation solution (1M NaOH/10× SSC) and incubated for 20 minutes at room temperature. The denatured supernatant mixture was blotted on a nylon membrane (Amersham, Arlington Heights, Ill.) using a dot blot apparatus (Schleicher and Schuell, Keene, N.H.). Samples were neutralized by washing the membrane with 0.5 ml of 1M Tris, pH 7.2/2M NaCl followed by 0.5 ml of 20× SSC. Filters were then rinsed in 2× SSC, subjected to UV light crosslinking (Stratalinker), and prehybridized in 5× SSC, 5× Denhardt's Reagent, 20 mM NaPO4, pH 6.5, 50% formamide, 1% SDS, and 250 mg/L salmon sperm DNA for 1 hour at 42° C.
A 2.8 Kb fragment corresponding to the HBV sequences of pCMAYW was generated by PCR amplification, and served as a template for the synthesis of [α-^32 P]dCTP labelled hybridization probes by random priming according to the vendor's specifications (Megaprime DNA Labelling System, Amersham). Blots were hybridized with the radioactively labelled probe for sixteen hours at 42° C. The filters were then washed twice in 2× SSC/0.1% SDS at 25° C. for 20 minutes each and twice in 0.2× SSC/0.1% SDS at 65° C. for 20 minutes each. Radioactivity for individual samples was quantitated with a Fuji MacBAS 1000 Phosphorimager.
Cells were seeded in 24 well plates at 4×10^5 cells/well and were grown to 100% confluency (approximately 3 days). At this time (day 0), cells were washed 3 times with PBS and 0.5 ml of medium containing various concentrations of known HBV inhibitors (ddC, 3TC and CDG). For each compound, four different concentrations and a negative control were tested, in the presence or in the absence of tetracycline. Typically, the medium was replaced 24 hours prior to collection with samples being collected four, eight, and twelve days after induction. […]
The samples were evaluated to determine the effective concentration of the inhibitors that inhibited the release of HBV DNA by 50%. […]

[2] = tested on: HBV (2.2.15 cells); assay: Inhibition of release of HBV DNA into the extracellular environment, 2.2.15 cells (dot blot); assay type: cell-based, hepatitis B virus
Source text: The current state of, the art for the detection of HBV in tissue culture is the HepG2 or 2.2.15 cell line assay (Korba & Milman, Antiviral Research 15: 217-228 1991). This assay uses HepG2 cells (a human hepatoblastoma cell line) stably transfected with DNA from a clone containing two tandemly arranged copies of the HBV genome. […] The 2.2.15 cell line produces HBV at levels sufficient for measurement by conventional detection methods (Aoki-Sef et al., J. Infect. Dis. 164: 843-851 1988; Sells et al., Proc. Natl. Acad. Sci. USA 84: 4641-4644 1988).
Cells were seeded in 24 well plates at 4×10^5 cells/well and were grown to 100% confluency (approximately 3 days). At this time (day 0), cells were washed 3 times with PBS and 0.5 ml of medium containing various concentrations of known HBV inhibitors (ddC, 3TC and CDG). For each compound, four different concentrations and a negative control were tested, in the presence or in the absence of tetracycline. Typically, the medium was replaced 24 hours prior to collection with samples being collected four, eight, and twelve days after induction. Media were clarified by centrifugation and stored at -70° C. for further analysis. The procedure for susceptibility testing in a 96-well format was essentially the same as for the 24 well plate format except that cells were seeded in 96 well plates at 5×10^4 cells/well, 5 concentrations of drug were tested, and the volume of medium used was 100 μl. In addition, samples were removed from the wells for HBV DNA determination either with and without medium changes 24 hours prior to collection.
The samples were evaluated to determine the effective concentration of the inhibitors that inhibited the release of HBV DNA by 50%. This value is referred to as the EC50 for the compound.

[3] = tested on: HBV Dane particles (Hep AD38 cells); assay: Induction of HBV Dane particles, Hep AD38 cells +/- tetracycline; assay type: cell-based, human hepatitis B virus
Method: (§1) For each cell line, two 60 mm plates were seeded with 3×10^6 cells. When the cells reached full confluency, the medium was changed and tetracycline was removed from the medium of one the plates. […] The medium was adjusted to 10% glycerol (by volume) and incubated one hour at 4° C. Dane particles were pelleted by […] centrifugation and resuspended in PBS. The viral capsid was disrupted with 1% NP-40 (Sigma Chemical Co., St Louis, Mo.) and the capsid proteins were digested with proteinase K (50 μg/ml). The viral DNA was analyzed by dot blot hybridization using a radioactively labeled probe specific for HBV DNA.

[4] = tested on: HBV DNA intermediates (Hep AD38 cells); assay: Southern blot of HBV DNA replicative intermediates (cccDNA, replicative intermediates, core DNA), Hep AD38 cells; assay type: cell-based, human hepatitis B virus; conditions: Hep AD38, presence of tetracycline
Method: For each of the Hep AD38, HepG2 and 2.2.15 cell lines, two 60 mm plates were seeded with 3×10^6 cells and allowed to grow as described above. When the cells became confluent, the medium was changed and tetracycline was removed from the medium on one of the plates. After a six day induction period, the medium again was removed and the cells were washed with PBS. Cells were then incubated at 37° C. for 10 minutes with 1 ml lysis buffer (0.5% SDS, 10 mM Tris-HCl, pH 7.5, 10 mM EDTA, 0.15M NaCl). The cell solutions were transferred to 1.5 ml Eppendorf tubes, adjusted to 0.5 M KCl, and incubated on ice for 15 minutes. The lysates were then clarified by high-speed centrifugation for 15 minutes at 4° C., and the supernatants were collected. DNA was isolated from the supernatants by phenol extraction followed by cold ethanol precipitation. Pelleted DNA was resuspended in 40 μl TE buffer.
For each cell line, two 60 mm plates were seeded with 3×10^6 cells. When the cells reached full confluency, the medium was changed and tetracycline was removed from the medium of one of the plates. After a 7 day induction period, the medium was removed and cells were washed with PBS. Cells were lysed by the addition of 0.6 ml of transfection lysis buffer (50 mM Tris, pH 8.0, 1 mM EDTA, 1% NP40) to each plate. The mixture was pipetted thoroughly to ensure complete cell lysis. […]

[5] = tested on: HBV Dane particles (2.2.15 cells); assay: Induction of HBV Dane particles, 2.2.15 cells +/- tetracycline; assay type: cell-based, hepatitis B virus
Method: as §1

[6] = tested on: HBV Dane particles (HepG2 cells); assay: Induction of HBV Dane particles, HepG2 cells +/- tetracycline; assay type: cell-based, hepatitis B virus
Method: as §1

Nc1nc2c(ncn2C2CC(O)C(CO)C2)c(=O)[nH]1 (stereo not shown) [CDG]
EC50 [1]: 0.011 µM
EC50 [2]: 0.019 µM

Nc1ccn([C@@H]2CS[C@H](CO)O2)c(=O)n1 [3TC]
EC50 ([1]; Hepatitis B virus, HePAD38): 0.02 µM
EC50 ([2]; Hepatitis B virus): 0.05 µM

CN(C)C1C(=O)C(C(N)=O)=C(O)C2(O)C(=O)C3=C(O)c4c(O)cccc4C(C)(O)C3CC12 (stereo not shown) [tetracycline]
production of HBV Dane particles ([3]; Hep AD38, 0.3 μg/ml of tetracycline): completely inhibits
HBV DNA released (Dane particles) ([3]; Hep AD38, +Tet, Day 7): 0 CPM/well
HBV DNA released (Dane particles) ([3]; Hep AD38, +Tet., Day 4): 0 CPM/well
release of HBV DNA into the extracellular environment ([3]; Hep AD38, grown in the presence of tetracycline): do not release HBV DNA
HBV DNA intermediates made [4]: not made
HBV DNA released (Dane particles) ([5]; 2.2.15, +Tet, Day 7): 1.8 × 10^4 CPM/well
HBV DNA released (Dane particles) ([5]; 2.2.15, +Tet., Day 4): 4 × 10^3 CPM/well
response to the presence or absence of tetracycline with regard to release of HBV DNA into the medium ([5]; 2.2.15, presence or absence of tetracycline): no response
HBV DNA released (Dane particles) ([6]; HepG2, +Tet, Day 7): 0 CPM/well
HBV DNA released (Dane particles) ([6]; HepG2, +Tet., Day 4): 0 CPM/well

Nc1ccn([C@H]2CC[C@@H](CO)O2)c(=O)n1 [ddC]
EC50 ([1]; Hepatitis B virus, HePAD38): 8 µM
EC50 ([2]; Hepatitis B virus): 6 µM
